Earlier results on one compound are cited in US12616206B2, “Graphene-silver nanocomposites and uses for same as an antimicrobial composition” (ZENTEK LTD., priority 2020, dated 2026).

Some test systems named below: Salmonella typhi; Streptococcus pyogenes; Vibrio cholerae; Candida albicans.
Common to all, as to settings: literature value, source by footnote a-g

On to `O=[N+]([O-])[O-].[Ag+]` [AgNO3, silver nitrate], for which the MIC is 110 ^c μg/mL with Salmonella typhi, 80 ^c μg/mL in the data set on Streptococcus pyogenes, 70 ^c μg/mL in the data set on Vibrio cholerae and 4.9 ^f μg/mL with Candida albicans.
